# Patent US20250122465A1 (priority 2023, published 2025)
# Read-outs that look alike come from different tables or passages of the source.
# Key:
# STRAIN-1 = experiment: Spore activation rate by phase-contrast microscopy, STRAIN-1; format: cell-based, Bacillus
# [1] = tested on: Clostridium perfringens type A and G strains; details: combined with taurocholate; cited from earlier work
# [2] = Example 1, individual amino acid at its Table 1 amount (0.08-500 g/L), 42° C., 1 hour
# [3] = Example 1, individual amino acid at its Table 1 amount (0.08-500 g/L), 42° C., 24 hours
Structure (SMILES),Activation Rate (%) at 1 hr. (STRAIN-1; [2]) [%],Activation Rate (%) at 24 hrs. (STRAIN-1; [3]),other results
NCC(=O)O [Glycine],0,0%,–
OC[C@H]1O[C@@H](n2cnc3c(O)ncnc32)[C@H](O)[C@@H]1O [Inosine],0,0%,–
C[N+](C)(C)C[C@H](O)CC(=O)[O-] [L Carnitine],–,–,Activation Rate (%) at 1 hr. (STRAIN-1): 0%; Activation Rate (%) at 24 hrs. (STRAIN-1): 0%
N=C(N)NCCC[C@H](N)C(=O)O [L-Arginine],0,0%,–
N[C@@H](CC(=O)O)C(=O)O [L-Aspartic acid],0,0%,–
N[C@@H](CS)C(=O)O [L-Cysteine],0,0%,–
N[C@@H](CSSC[C@H](N)C(=O)O)C(=O)O [L-Cystine],0,0%,–
N[C@@H](CCC(=O)O)C(=O)O [L-Glutamic acid],0,0%,–
NC(=O)CC[C@H](N)C(=O)O [L-Glutamine],0,0%,–
N[C@@H](Cc1c[nH]cn1)C(=O)O [L-Histidine],0,0%,–
CC[C@H](C)[C@H](N)C(=O)O [L-Isoleucine],–,99 +/− 0%,"Activation Rate (%) at 24 hrs. (STRAIN-1; Example 1, individual amino acid at its Table 1 amount (0.08-500 g/L), 42° C., 24 hours, listed as L-isoleucine): 99%"
CC(C)C[C@H](N)C(=O)O [L-Leucine],0,0%,Activation Rate (%) at 24 hrs. (STRAIN-1): zero
NCCCC[C@H](N)C(=O)O [L-Lysine],–,–,Activation Rate (%) at 1 hr. (STRAIN-1): 0%; Activation Rate (%) at 24 hrs. (STRAIN-1): 0%
CSCC[C@H](N)C(=O)O [L-Methionine],0,0%,–
N[C@@H](Cc1ccccc1)C(=O)O [L-Phenylalanine],0,0%,–
O=C(O)[C@@H]1CCCN1 [L-Proline],0,0%,–
N[C@@H](CO)C(=O)O [L-Serine],0,0%,–
C[C@@H](O)[C@H](N)C(=O)O [L-Threonine],0,0%,–
N[C@@H](Cc1c[nH]c2ccccc12)C(=O)O [L-Tryptophan],0,0%,–
N[C@@H](Cc1ccc(O)cc1)C(=O)O [L-Tyrosine],0,0%,–
CC(C)[C@H](N)C(=O)O [L-Valine],0,95 +/− 0%,"Activation Rate (%) at 1 hr. (STRAIN-1): did not result in any activation; Activation Rate (%) at 24 hrs. (STRAIN-1; Example 1, individual amino acid at its Table 1 amount (0.08-500 g/L), 42° C., 24 hours, listed as L-valine): 95%"
C[C@H](N)C(=O)O [L-alanine],–,–,spore germination induced [1]: approximately 50%
